Tested on: PLP-induced EAE mice
Assay: Monotherapy efficacy experiment in the PLP-induced EAE model (therapeutic setting)
Assay type: in vivo, mouse (SJL/J)
Protocol: Female SJL/J mice are immunized with an emulsion of PLP in CFA and pertussis toxin (day 0). A total of 100 μg of PLP is injected per mice at two sites subcutaneously in each flank of the abdomen. Mice are injected intraperitoneally with pertussis toxin a second time, 2 days after the first injection (day 2). Within 9 to 16 days, mice develop signs of paralysis which will be graded on a scale from 0 to 5 assessing the tail and limbs defined as: 0=no clinical sign of EAE, 0.5=end tail paralyzed or one limb weakness, 1=tail paralyzed or two limbs weakness, 1.5=tail paralyzed and one hind limb weakness, 2=tail paralyzed and bilateral partial hind limb paralysis, 2.5=tail paralyzed and unilateral complete hind limb paralysis, 2.75=score of 2.5+unilateral partial hind limb paralysis, 3=complete bilateral hind limb paralysis, 3.25=3+unilateral partial forelimb paralysis, 3.5=3+unilateral complete forelimb paralysis, 4=complete paralysis (moribund) and, 5=death or euthanized. The disease progression follows a relapsing-remitting course with a first peak of disease occurring three to five days after the onset, followed by a remission phase and a second peak of the disease between 20-30 days after EAE induction.
The study consists of four treatment groups: • 1. Vehicle (water) b.i.d., from disease onset for each mouse • 2.
Clinical scores are assessed on a daily basis, in a blinded manner and disease development is compared between vehicle-treated mice and mice receiving COMPOUND. The cumulative disease score is calculated for each mouse by summing all the daily clinical scores over the 30-days after treatment initiation. […] CXCL12 plasma concentrations are determined as previously described in example A.

[1] = COMPOUND 10, 100, 150 mg/kg b.i.d. from disease onset

With O=C(N[C@H]1CCN(CC2CC2)C[C@@H]1C(=O)NC1(c2ncccn2)CC1)c1cc(-c2ccc(F)cc2F)on1 [COMPOUND, (3S,4S)-1-Cyclopropylmethyl-4-{[5-(2,4-difluoro-phenyl)-isoxazole-3-carbonyl]-amino}-piperidine-3-carboxylic acid (1-pyrimidin-2-yl-cyclopropyl)-amide] the “CXCL11 plasma levels at trough” value (COMPOUND 100 mg/kg b.i.d.) was “increases”, the “CXCL12 plasma levels at trough” value (COMPOUND 100 mg/kg b.i.d.) was “increases” and the “clinical scores in the PLP-induced EAE model” value (COMPOUND 100 mg/kg b.i.d.) was “maximally reduces”. The “plasma CXCL11 levels” value [1] was “dose-dependent increase”, the “plasma CXCL12 levels” value [1] was “dose-dependent increase” and the “overall extent of the disease, mean cumulative disease scores over 30 days after treatment initiation” value (COMPOUND 10, 100, 150 mg/kg b.i.d. oral from disease onset (therapeutic)) was “dose-dependent efficacy”.

— US20250228850A1, “COMBINATION OF A CXCR7 ANTAGONIST WITH AN S1P1 RECEPTOR MODULATOR” (Idorsia Pharmaceuticals Ltd., priority 2019, published 2025)
